This note sets out measurements from article PMC8620390, “New Multi-Targeted Antiproliferative Agents: Design and Synthesis of IC261-Based Oxindoles as Potential Tubulin, CK1 and EGFR Inhibitors” (Pharmaceuticals, 2021).

Values joined by “and” are separate entries in the source; they are usually repeats but may differ in a detail not shown here. Equal entries are not always repeated. Marks after values point to notes of the source that are not given here.

Series [1] concerns COLO-205. In words: Annexin V-FITC/PI apoptosis assay. Format: cell-based, human. On the procedure: COLO-205 Cells were placed in a 6-well plate at 1 × 10^5 concentration of cells/well then incubated for 24 h. COLO-205 Cells were treated with compound 4b (2.34 μM) for 24 h. The cells were then harvested, washed with PBS and stained with Annexin V-FITC and PI in binding buffer ([…] at pH 7.4) for 15 min at room temperature in the dark then analyzed by the flow cytometer.

Another series relates to Bax. In words: Bax expression level in COLO-205 (qRT-PCR). The series is classed as cell-based, human. The note with it: COLO-205, 4b 2.34 μM, vs DMSO-treated control. On the procedure: (§1) qRT-PCR was used to assess the […] expression of Bax and Bcl-2. The High Pure RNA Isolation Kit (RNeasy extraction kit, up to 1 × 10^7 cells) was used to isolate total RNA from COLO-205 cells according to the manufacturer's instructions. A Transcriptor First Strand c-DNA Synthesis Kit was used to produce c-DNA from RNA according to the manufacturer's instructions; 10 μL total RNA was used for amplification Specific primers for Bax, Bcl-2, and P53 were used in PCR experiments. A LightCycler 480 PCR Master Mix was used to set up amplification reactions with a reaction volume of 20 uL. TaqMan probes and PCR primers were created and tuned. PCR Primer sequences were as following (Bax [NT], Bax [NT]. Bcl-2 [NT], and Bcl-2 […] dissociation assay was performed to evaluate any problem related to primer unspecific annealing or any secondary structure formation. Data were analyzed using SDS analysis software.
(Quantitative PCR measures a nucleic acid by following its amplification.)

For a further series, the system named is Pgp. Put plainly: Pgp ELISA assay in MCF-7 cells. The series is classed as in vitro ADME, human. A general note: ELISA stands for enzyme-linked immunosorbent assay.
Series [2] deals with COLO-205. Put plainly: Cell cycle analysis, DNA flow cytometry (PI). Format: cell-based, human. On the procedure:
COLO-205 Cells were placed in a 6-well plate at 1 × 10^5 concentration of cells/well then incubated for 24 h. COLO-205 Cells were treated with compound 4b (2.34 μM) for 24 h. Cells were then collected and fixed for 12 h using ice cold 70% ethanol at 4 °C. Ethanol was then removed and cells were washed with cold phosphate buffer saline (PBS, 0.5 mL) and incubated for 30 min at 37 °C. The cells were stained for 30 min with propidium iodide in the dark. A flow cytometer was used to detect DNA content.
In general terms: In flow cytometry, cells or beads pass a laser one at a time.

For the next series, the system named is Bcl-2. Put plainly: Bcl-2 expression level in COLO-205 (qRT-PCR). Format: cell-based, human. On the procedure:
as §1

[3] abbreviates: COLO-205, 4b 2.34 μM, 24 h, annexin V-FITC.

Procedure for Pgp: PgP concentration was measured using ELISA kit Cat No: MBS722065) for human PgP assay. The Pgp ELISA kit employs a competitive enzyme immunoassay technique using a polyclonal anti-Pgp antibody and a PgpHRP conjugate. The test sample and buffer were incubated together with the PgpHRP conjugate on a precoated plate for one hour. After the incubation period, the wells were decanted and washed five times. The wells were then incubated with a substrate for the HRP enzyme. The enzyme-substrate reaction product formed a blue complex. Finally, a stop solution was added to stop the reaction, which then turned the solution yellow. Color intensity was measured spectrophotometrically at 450 nm in a microplate reader. The intensity of the color was inversely proportional to the Pgp concentration, since the Pgp of the samples and the PgpHRP conjugate competed for the binding site of the anti-Pgp antibody. Because the number of sites is limited, there were fewer sites left to bind to the PgpHRP conjugate as the sample Pgp occupies more sites. A standard curve was drawn that relates the intensity of the color to the concentration of the standards. The Pgp concentration in each sample was interpolated from this standard curve.

As to `COc1cc(OC)c(/C=C2/C(=O)Nc3cc(Cl)ccc32)c(OC)c1` [Compound 4b, (E)-6-chloro-3-(2,4,6-trimethoxybenzylidene)indolin-2-one], in the series on COLO-205 [1] (setting [3]), the “Apoptosis Early” value came to 2.61%, the “Apoptosis Late” value came to 21.31% and the “Apoptosis Total” value was 41.28%. The Necrosis in the series on COLO-205 [1] (COLO-205, 4b 2.34 μM, 24 h, annexin V-FITC/PI) stood at 17.36%. Further, the “overall effect (cytotoxic vs cytostatic)” value with COLO-205 [1] (COLO-205, annexin V/PI) is on record as “cytotoxic, rather than cytostatic”. In addition, in the series with COLO-205 [1] (COLO-205, vs DMSO control), the “early and late apoptosis, times compared to the control” value was 27.81 times; the “necrosis, times compared to the control” value is recorded as 11.05 times. The “Bax expression level, fold change” value with Bax was 5.104 fold and 5.10 fold. Besides, the “Pgp occupied by compound” value in the series on Pgp is “around 35%”. Also, in the series with COLO-205 [2] (COLO-205, 4b 2.34 μM, 24 h), the “DNA content %G0-G1” value amounted to 47.15%; the “DNA content %G2/M” value is recorded as 2.94 * %; the “DNA content %Pre-G1” value was 41.28% and 41.28 * %; the “DNA content %S” value amounted to 49.91%. The “increase in cells at pre-G1 phase, fold” value in the series on COLO-205 [2] (COLO-205, vs untreated control) is on record as 16.99 fold. In addition, the “Bcl-2 level, fold change” value with Bcl-2 (COLO-205, 4b 2.34 μM, vs control) is 0.242 fold and 0.24 fold. Also, in the series on Bcl-2 (COLO-205, vs untreated COLO cells), the “Bcl-2 protein level down-regulation, fold lower than untreated cells” value came to 4.16 fold.
